Test results from US4202902A, “Lipogenesis control by cyclopropane-carboxylic acids, esters and amides” (Shell Oil Company, priority 1979, dated 1980).

Experiments:
swine adipose tissue = experiment: In vitro inhibition of lipogenesis (incorporation of radioactive glucose carbon into lipid) in swine adipose tissue slices; type: cell-based; conditions: Sus scrofa, 100 micrograms per milliliter, 37° C., 2 hours, 5% DMSO, compared to control without test compound, triplicate, read-out: Percent Inhibition of lipogenesis
Description: The manner in which they cause this effect is not known with certainty; it is believed that they interfere with the synthesis of fatty acids in the tissue. Their effectiveness for this purpose has been ascertained by immersing samples of swine adipose tissue in a liquid medium containing radioactive glucose and the test chemical for a period time, then isolating the lipid from the treated tissue and determining the incorporation of the ratioactive carbon into the lipid by means of scintillation counting techniques. These tests were conducted in swine adipose tissue because in swine the primary site of lipogenesis--i.e., fatty acid synthesis--appears to be adipose tissue.
Described in more detail, the tests were conducted according to the following general procedure.
150 milligrams of slices of swine adipose tissue were incubated at 37° C. for 2 hours with shaking in 3 milliliters of Krebs-Ringer bicarbonate solution containing one-half the usual calcium ion concentration, 60 micromoles of glucose, 0.5 microCurie of glucose-U^14 C, and 100 milliunits of insulin, and 5% dimethyl sulfoxide (DMSO). The test compounds were added as a solution or suspension in DMSO and were present at a concentration of 100 micrograms per milliliter of the incubation mixture.
The incubation was terminated by addition of 0.25 milliliter of 1 N sulfuric acid. The resulting mixture was extracted with a total of 25 milliliters of chloroform:methanol (2:1 v/v). The extracts were washed according to Folch et al. (J. Biol. Chem., 226, 497-509, (1957)), air dried, and counted in a liquid scintillation counter with 15 milliliters of counting fluid (two parts toluene containing 0.4% w/v New England Nuclear Omnifluor: 1 part Triton X-100). The tests were conducted in triplicate and were accompanied by control tests in which all ingredients,proportions and conditions were the same except that no test compound was included. From the data obtained were calculated the percent inhibition of lipid synthesis by the test compound in each case. The data obtained from these tests were set out in Table I, as the percent inhibition of lipogenesis compared to the results obtained in the control tests wherein only the test compound was omitted.

[1] = system: swine adipose tissue lipid synthesis; experiment: In vivo inhibition of swine adipose tissue lipid synthesis (pigs dosed in feed, biopsy slices incubated with radioactive glucose); conditions: approx. 25 mg/kg per day for seven days in ration, compared to control animals; for lipogenic rate after 2 weeks: biopsy 1 week after withdrawal of drug; for effect on lipogenesis after 1 week: biopsy after 1 week of drug administration
Description: Compounds 1 and 6 were tested to determine the in vivo inhibition of swine adipose tissue lipid synthesis, as follows: pigs weighing about 20 kilograms were administered a fixed drug dose of approximately 25 milligrams of drug per kilogram of animal body weight per day for seven consecutive days. The drug was formulated to contain 10%w active ingredient and was prepared as coarse granules using 4%w plasdene as the granulating agent and lactose as the carrier. […] The daily drug or placebo dose was added to 1.2 kilograms of swine ration; about one-third of the total was fed at 0800, 1200, and 1600 hours. Biopsy samples were obtained from the dorsal subcutaneous adipose tissue (ca 1 gram) in the neck region before drug administration, after 1 week of drug administration, and 1 week after withdrawal of drug. Adipose tissue slices were prepared from the biopsy sample, and in vitro lipogenesis was determined with radioactive glucose as substrate. The incubation was similar to that previously described except that there was no DMSO or test compound in the flasks.

Row | Compound | inhibition at 100 µg/mL (swine adipose tissue) | lipogenic rate after 2 weeks [1] | effect on lipogenesis after 1 week [1]
1 | CCCCCCCC[C@@H]1C[C@H]1C(=O)OCC (relative stereo) [Compound 1, Ethyl 2-octylcyclopropanecarboxylate (trans)] | > 20% | significantly reduced the lipogenic rate | neither of the test compounds had significantly affected lipogenesis
2 | CCCCCCCCC[C@@H]1C[C@H]1C(=O)OCC (relative stereo) [Compound 2, Ethyl 2-nonylcyclopropanecarboxylate (trans-)] | 27% | – | –
3 | CCCCCCCC[C@@H]1C[C@H]1C(N)=O (relative stereo) [Compound 4, 2-Octylcyclopropanecarboxamide (trans)] | > 20% | – | –
4 | CCCCCCCCC[C@@H]1C[C@H]1C(=O)O (relative stereo) [Compound 5, 2-Nonylcyclopropanecarboxylic acid (trans)] | 79% | – | –
5 | CCCCCCCC[C@@H]1C[C@H]1C(=O)O (relative stereo) [Compound 6, 2-octylcyclopropanecarboxylic acid (trans)] | 77% | significantly reduced the lipogenic rate | neither of the test compounds had significantly affected lipogenesis
6 | CCCCCCCCCCCCCC[C@@H]1C[C@H]1C(=O)O (relative stereo) [Compound 7, 2-tetradecylcyclopropanecarboxylic acid (trans)] | 46% | – | –
7 | CCCCCCCCC[C@@H]1C[C@H]1C(N)=O (relative stereo) [Compound 8, 2-Nonylcyclopropanecarboxycarboxamide (trans)] | 34% | – | –
8 | O=C(O)[C@@H]1C[C@H]1c1ccccc1 (relative stereo) [Compound 13, 2-phenylcyclopropane-1-carboxylic acid (trans)] | 32% | – | –
9 | CCCCC1CC1C(=O)OCC (stereo not drawn) [Compound 3, Ethyl 2-butylcyclopropanecarboxylate] | 24% | – | –
10 | CCOC(=O)C1(C#N)CC1c1ccccc1 (stereo not drawn) [Compound 9, Ethyl 1-cyano-2-phenylcyclopropanecarboxylate] | 57% | – | –
11 | CCCCCCC1CC1(C#N)C(=O)OCC (stereo not drawn) [Compound 10, Ethyl 1-cyano-2-hexylcyclopropanecarboxylate (trans-)] | 44% | – | –
12 | N#CC1(C(=O)O)CC1c1ccccc1 (stereo not drawn) [Compound 11, 1-Cyano-2-phenylcyclopropanecarboxylic acid] | 49% | – | –
13 | CCOC(=O)C1CC1COC(C)=O (stereo not drawn) [Compound 12, Ethyl 2-((acetyloxy)methyl)cyclopropanecarboxylate] | 31% | – | –
14 | CCOC(=O)C1CC1(C#N)c1ccccc1 (stereo not drawn) [Compound 14, Ethyl 2-cyano-2-phenylcyclopropanecarboxylate] | 53% | – | –
